Key:
ABUTH = experiment: greenhouse post-emergence herbicidal test; type: in vivo, Abutilon theophrasti; conditions: post-emergence method, scale from 0 to 100
Method in brief: (§1)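 Greenhouse plants, grown to 3–15 cm, were treated post-emergence with emulsified or suspended compound and assessed over 2–4 weeks on a 0–100 damage scale.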

ECHCG [1] = experiment: greenhouse post-emergence herbicidal test; type: in vivo, Echinocloa crus-galli; conditions: post-emergence method, scale from 0 to 100
Method in brief: as §1

SETFA = experiment: greenhouse pre-emergence herbicidal test; type: in vivo, Setaria faberi; conditions: pre-emergence method, scale from 0 to 100
Excerpt: The seeds of the test plants were sown separately for each species. For the pre-emergence treatment, the active ingredients, which had been suspended or emulsified in water, were applied directly after sowing by means of finely distributing nozzles. The containers were irrigated gently to promote germination and growth and subsequently covered with transparent plastic hoods until the plants had rooted. This cover caused uniform germination of the test plants, unless this had been impaired by the active ingredients. Depending on the species, the plants were kept at 10-25° C. or 20-35° C., respectively. The test period extended over 2 to 4 weeks. During this time, the plants were tended, and their response to the individual treatments was evaluated. Evaluation was carried out using a scale from 0 to 100. 100 means no emergence of the plants, or complete destruction of at least the aerial moieties, and 0 means no damage, or normal course of growth. […] The plants used in the greenhouse experiments were of the following species: [table]

APESV = experiment: greenhouse pre-emergence herbicidal test; type: in vivo, Apera spica-venti; conditions: pre-emergence method, scale from 0 to 100
Method in brief: (§2)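 Species-dependent temperatures of 10-25° C. or 20-35° C. were maintained for a 2 to 4 week test after pre-emergence nozzle application of compounds dispersed in water. Efficacy was scored 0-100, with 100 denoting no emergence or total aerial destruction.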

ECHCG [2] = experiment: greenhouse pre-emergence herbicidal test; type: in vivo, Echinocloa crus-galli; conditions: pre-emergence method, scale from 0 to 100
Method in brief: as §2

SETVI = experiment: greenhouse post-emergence herbicidal test; type: in vivo, Setaria viridis; conditions: post-emergence method, scale from 0 to 100
Excerpt: (§3) The seeds of the test plants were sown separately for each species. For the post-emergence treatment, the test plants were first grown to a height of 3 to 15 cm, depending on the plant habit, and only then treated with the active ingredients which had been suspended or emulsified in water. For this purpose, the test plants were either sown directly and grown in the same containers, or they were first grown separately as seedlings and transplanted into the test containers a few days prior to treatment. Depending on the species, the plants were kept at 10-25° C. or 20-35° C., respectively. The test period extended over 2 to 4 weeks. During this time, the plants were tended, and their response to the individual treatments was evaluated. Evaluation was carried out using a scale from 0 to 100. 100 means no emergence of the plants, or complete destruction of at least the aerial moieties, and 0 means no damage, or normal course of growth. […] The plants used in the greenhouse experiments were of the following species: [table]

AMARE = experiment: greenhouse post-emergence herbicidal test; type: in vivo, Amaranthus retroflexus; conditions: post-emergence method, scale from 0 to 100
Method in brief: as §1

POLCO = experiment: greenhouse post-emergence herbicidal test; type: in vivo, Polygonum convolvulus; conditions: post-emergence method, application rate 500 g/ha, scale from 0 to 100
Method in brief: as §1

ALOMY = experiment: greenhouse post-emergence herbicidal test; type: in vivo, Alopercurus myosuroides; conditions: post-emergence method, application rate 1000 g/ha, scale from 0 to 100
Method in brief: as §1

AVEFA = experiment: greenhouse post-emergence herbicidal test; type: in vivo, Avena fatua; conditions: post-emergence method, application rate 1000 g/ha, scale from 0 to 100
Method in brief: as §1

LOLMU = experiment: greenhouse post-emergence herbicidal test; type: in vivo, Lolium multiflorum; conditions: post-emergence method, application rate 500 g/ha, scale from 0 to 100
Excerpt: as §3

SMILES: Cc1ccccc1-c1cnc(-c2ccccc2)nc1C(=O)O [example 271]
- herbicidal activity against ABUTH (ABUTH; application rate 500 g/ha): very good (a very good herbicidal activity is given at values of at least 85)
- herbicidal activity against ECHCG (ECHCG [1]; application rate 500 g/ha): very good (a very good herbicidal activity is given at values of at least 85)
- herbicidal activity against SETFA (SETFA; application rate 500 g/ha): good (A good herbicidal activity is given at values of at least 70)

SMILES: COC(=O)c1nc(C2CC2)ncc1-c1c(Br)ccc(C)c1F [example 198]
- herbicidal activity against ABUTH (ABUTH; application rate 500 g/ha): very good (a very good herbicidal activity is given at values of at least 85)
- herbicidal activity against APESV (APESV; application rate 500 g/ha): very good (a very good herbicidal activity is given at values of at least 85)
- herbicidal activity against ECHCG (ECHCG [2]; application rate 500 g/ha): very good (a very good herbicidal activity is given at values of at least 85)
- herbicidal activity against SETVI (SETVI; application rate 500 g/ha): very good (a very good herbicidal activity is given at values of at least 85)

SMILES: CSc1ncc(-c2ccc(C(F)(F)F)cc2C)c(C(=O)O)n1 [example 99]
- herbicidal activity against ECHCG (ECHCG [1]; application rate 2000 g/ha): good (A good herbicidal activity is given at values of at least 70)
- herbicidal activity against AMARE (AMARE; application rate 2000 g/ha): very good (a very good herbicidal activity is given at values of at least 85)
- herbicidal activity against SETVI (SETVI; application rate 2000 g/ha): very good (a very good herbicidal activity is given at values of at least 85)

SMILES: Cc1cc(F)c(-c2cnc(C3CC3)nc2C(=O)O)cc1Cl [example 137]
- herbicidal activity against AMARE (AMARE; application rate 1000 g/ha): very good (a very good herbicidal activity is given at values of at least 85)
- herbicidal activity against SETVI (SETVI; application rate 1000 g/ha): very good (a very good herbicidal activity is given at values of at least 85)

SMILES: Cc1ccc(Cl)c(-c2cnc(C3CC3)nc2C(=O)O)c1 [example 144]
- herbicidal activity against POLCO (POLCO): very good (a very good herbicidal activity is given at values of at least 85)
- herbicidal activity against APESV (APESV; application rate 500 g/ha): very good (a very good herbicidal activity is given at values of at least 85)
- herbicidal activity against ECHCG (ECHCG [2]; application rate 500 g/ha): very good (a very good herbicidal activity is given at values of at least 85)
- herbicidal activity against SETVI (SETVI; application rate 500 g/ha): very good (a very good herbicidal activity is given at values of at least 85)

SMILES: CCc1ncc(-c2cc(C)ccc2C)c(C(=O)O)n1 [example 9]
- herbicidal activity against ABUTH (ABUTH; application rate 1000 g/ha): very good (a very good herbicidal activity is given at values of at least 85)
- herbicidal activity against APESV (APESV; application rate 1000 g/ha): very good (a very good herbicidal activity is given at values of at least 85)
- herbicidal activity against SETFA (SETFA; application rate 1000 g/ha): very good (a very good herbicidal activity is given at values of at least 85)
- herbicidal activity against AMARE (AMARE; application rate 1000 g/ha): good (A good herbicidal activity is given at values of at least 70)

SMILES: CCOc1cccc(Br)c1-c1cnc(C2CC2)nc1C(=O)O [example 303]
- herbicidal activity against APESV (APESV; application rate 1000 g/ha): very good (a very good herbicidal activity is given at values of at least 85)
- herbicidal activity against ECHCG (ECHCG [1]; application rate 1000 g/ha): very good (a very good herbicidal activity is given at values of at least 85)
- herbicidal activity against SETFA (SETFA; application rate 1000 g/ha): very good (a very good herbicidal activity is given at values of at least 85)

SMILES: CSc1ncc(-c2cc(C)ccc2Cl)c(C(=O)O)n1 [example 86]
- herbicidal activity against SETFA (SETFA; application rate 1000 g/ha): good (A good herbicidal activity is given at values of at least 70)
- herbicidal activity against ECHCG (ECHCG [2]; application rate 1000 g/ha): good (A good herbicidal activity is given at values of at least 70)

SMILES: COC(=O)c1nc(C2CCC2)ncc1-c1ccccc1C [example 264]
- herbicidal activity against ABUTH (ABUTH; application rate 1000 g/ha): very good (a very good herbicidal activity is given at values of at least 85)
- herbicidal activity against APESV (APESV; application rate 1000 g/ha): good (A good herbicidal activity is given at values of at least 70)
- herbicidal activity against SETFA (SETFA; application rate 1000 g/ha): very good (a very good herbicidal activity is given at values of at least 85)
- herbicidal activity against AMARE (AMARE; application rate 1000 g/ha): very good (a very good herbicidal activity is given at values of at least 85)

SMILES: O=C(O)c1nc(C2CC2)ncc1-c1c(F)cccc1I [example 317]
- herbicidal activity against ALOMY (ALOMY): very good (a very good herbicidal activity is given at values of at least 85)
- herbicidal activity against AVEFA (AVEFA): very good (a very good herbicidal activity is given at values of at least 85)
- herbicidal activity against APESV (APESV; application rate 1000 g/ha): very good (a very good herbicidal activity is given at values of at least 85)
- herbicidal activity against ECHCG (ECHCG [2]; application rate 1000 g/ha): very good (a very good herbicidal activity is given at values of at least 85)
- herbicidal activity against SETVI (SETVI; application rate 1000 g/ha): very good (a very good herbicidal activity is given at values of at least 85)

SMILES: O=C(O)c1nc(C2CCC2)ncc1-c1ccccc1Cl [example 2, 5-(2-Chlorophenyl)-2-cyclobutyl-pyrimidine-4-carboxylate]
- herbicidal activity against ABUTH (ABUTH; application rate 1000 g/ha): good (A good herbicidal activity is given at values of at least 70)
- herbicidal activity against ECHCG (ECHCG [1]; application rate 1000 g/ha): good (A good herbicidal activity is given at values of at least 70)
- herbicidal activity against SETFA (SETFA; application rate 1000 g/ha): good (A good herbicidal activity is given at values of at least 70)

SMILES: Cc1ccc(C)c(-c2cnc(C(C)C)nc2C(=O)O)c1 [example 34]
- herbicidal activity against LOLMU (LOLMU): good (A good herbicidal activity is given at values of at least 70)
- herbicidal activity against APESV (APESV; application rate 500 g/ha): very good (a very good herbicidal activity is given at values of at least 85)
- herbicidal activity against ECHCG (ECHCG [1]; application rate 500 g/ha): very good (a very good herbicidal activity is given at values of at least 85)
- herbicidal activity against ECHCG (ECHCG [2]; application rate 500 g/ha): very good (a very good herbicidal activity is given at values of at least 85)

SMILES: COC(=O)c1nc(C(C)C)ncc1-c1ccccc1C [example 37]
- herbicidal activity against ECHCG (ECHCG [1]; application rate 1000 g/ha): very good (a very good herbicidal activity is given at values of at least 85)
- herbicidal activity against SETFA (SETFA; application rate 1000 g/ha): very good (a very good herbicidal activity is given at values of at least 85)
- herbicidal activity against ECHCG (ECHCG [2]; application rate 1000 g/ha): very good (a very good herbicidal activity is given at values of at least 85)

SMILES: COC(=O)c1nc(C2CC2)ncc1-c1c(Cl)cccc1C(F)(F)F [example 302]
- herbicidal activity against ECHCG (ECHCG [1]; application rate 1000 g/ha): very good (a very good herbicidal activity is given at values of at least 85)
- herbicidal activity against SETFA (SETFA; application rate 1000 g/ha): very good (a very good herbicidal activity is given at values of at least 85)
- herbicidal activity against AMARE (AMARE; application rate 1000 g/ha): very good (a very good herbicidal activity is given at values of at least 85)

SMILES: CSc1ncc(-c2ccccc2S(C)(=O)=O)c(C(=O)O)n1 [example 114]
- herbicidal activity against SETFA (SETFA; application rate 2000 g/ha): very good (a very good herbicidal activity is given at values of at least 85)

SMILES: CSc1ncc(-c2ccc(C#N)cc2C)c(C(=O)O)n1 [example 96]
- herbicidal activity against AMARE (AMARE; application rate 2000 g/ha): very good (a very good herbicidal activity is given at values of at least 85)
- herbicidal activity against SETVI (SETVI; application rate 2000 g/ha): very good (a very good herbicidal activity is given at values of at least 85)

SMILES: Cc1ccccc1-c1cnc(S(C)(=O)=O)nc1C(=O)O [example 127]
- herbicidal activity against SETFA (SETFA; application rate 2000 g/ha): good (A good herbicidal activity is given at values of at least 70)

SMILES: CCOC(=O)c1nc(OC)ncc1-c1cc(C)c(F)cc1C [example 64]
- herbicidal activity against ALOMY (ALOMY): very good (a very good herbicidal activity is given at values of at least 85)
- herbicidal activity against AMARE (AMARE; application rate 1000 g/ha): very good (a very good herbicidal activity is given at values of at least 85)
- herbicidal activity against SETVI (SETVI; application rate 1000 g/ha): very good (a very good herbicidal activity is given at values of at least 85)

SMILES: COC(=O)c1nc(C2CC2)ncc1-c1ccccc1[N+](=O)[O-] [example 223]
- herbicidal activity against APESV (APESV; application rate 1000 g/ha): very good (a very good herbicidal activity is given at values of at least 85)
- herbicidal activity against ECHCG (ECHCG [1]; application rate 1000 g/ha): very good (a very good herbicidal activity is given at values of at least 85)
- herbicidal activity against ECHCG (ECHCG [2]; application rate 1000 g/ha): very good (a very good herbicidal activity is given at values of at least 85)
- herbicidal activity against SETVI (SETVI; application rate 1000 g/ha): very good (a very good herbicidal activity is given at values of at least 85)
